Where a SMILES comes first, the peptide text is derived from it. Where no end group is shown, it is not given here. The star is where a group is joined. X1 = O=C(OCCSSCCOC(=O)*)c1ccccc1; X2 = CC(=O)OCCSSCCOC(=O)*
Assays:
HepG2 cells [1] = test: MTT cytotoxicity assay; format: cell-based; conditions: for cytotoxicity of coacervates with luciferase-encoding mRNA: optimal concentration, HepG2 (FIG. 10C); for cytotoxicity of peptide alone: free peptide, HepG2
Protocol: (§1) The cytotoxicity of the therapeutics-loaded or pristine peptide coacervates was evaluated by using the methylthiazolyldiphenyl-tetrazolium bromide (MTT) assay. Following literature protocols (Chang, H. et al., Nano Letters, 2017, 17, 1678; Sun, Y. et al. Biomat., 2017, 117, 77), 10^4 of HepG2 or HEK293 cells in 100 µL of media (DMEM, 10% FBS, antibiotics) were transferred into 96-wells plates and incubated for 24 hours. Then, the media were replaced with 100 µL of Opti-MEM containing therapeutics-loaded coacervates (various concentration of therapeutics, 1 mg/mL HBpep-SP) or various concentrations of pristine coacervate suspensions. After 4 hours of uptake, the media were removed and the cells were washed by PBS twice before adding 100 µL of media (DMEM, 10% FBS, antibiotics). The cells were incubated for another 20 hours before 10 µL of 5 mg/mL MTT dissolved in PBS was added. The media were removed after 4 hours of incubation with MTT, and the cells were washed by PBS twice. After that, 100 µL of DMSO per well was added for absorbance measurements at 570 nm using a microplate reader (Infinite M200 Pro, Tecan, Switzerland). The relative cell viability was calculated as: […]
(§2) where At, Ab, and Ac represent the absorbance of tested cells, control cells and no cell, respectively.

HEK293 cells = test: MTT cytotoxicity assay; format: cell-based; conditions: optimal concentration, HEK293 (FIG. 10D)
Protocol: as §1, §2

[2] = Optical/fluorescence microscopy of coacervates; format: physicochemical; conditions: near-physiological conditions
Protocol: Optical and fluorescence microcopy images of HBpep-SP coacervates and fluorescence image of macromolecules-loaded HBpep-SP coacervates were taken using an invert fluorescence microscope (AxioObserver.Z1, Zeiss, Germany). Dynamic light scattering (DLS, ZetaPALS, Brookhaven, USA) system was employed to measure the size of pristine HBpep-SR coacervates and macromolecules-loaded HBpep-SR coacervates. The fresh prepared pristine or macromolecules-loaded coacervates (with or without 0.1 mg/mL of macromolecules, 1 mg/mL of modified peptides) was diluted into PBS with a volume ratio of 1 : 9.0 before the DLS test.

[3] = Turbidity measurement of phase separation (coacervation) at various pH; format: physicochemical
From the text: The phase separation behavior of HBpep-K and HBpep-SR peptides at various pH was monitored turbidity measurements using a UV-Vis spectrometer (UV-2501PC, Shimadzu, Japan). The absorbance at 600 nm (A600) was used to calculate the relative turbidity (Lim, Z.W. et al., Bioconjugate Chem., 2018, 29, 2176) as: […]

HepG2 cells [4] = test: Delivery of proteins and peptides into cells (fluorescence microscopy); format: cell-based; conditions: free form, not recruited in coacervates
Protocol: (§3) For protein delivery into cells, 10^5 of cells were suspended in 1 mL of Dulbecco’s modified Eagle medium (DMEM) supplemented with 10% of fetal bovine serum, 100 units/mL of penicillin and 100 µg/mL of streptomycin, and then transferred into […] culture dishes. After 24 hours of incubation at 37° C. with 5% of CO2, the media was replaced with 900 µL of Opti-MEM. Then, 100 µL of freshly prepared protein-loaded HBpep-SA or HBpep-SP coacervate suspensions (0.1 mg/mL of cargos, 1 mg/mL of modified peptides) were added into the media. After 4 hours of incubation, the media was removed and the cells were washed with PBS twice before adding 1 mL of fresh media (DMEM, 10% FBS, antibiotics). The cells were incubated for another 20 hours and then washed twice at pH 5.0 in phosphate buffer to remove any coacervates that had not entered the cells, before being imaged under the fluorescence microscope (AxioObserver.Z1, Zeiss, Germany).

HepG2 cells [5] = test: X-Gal staining of cells after β-Gal delivery; format: cell-based; conditions: 24 hours
Protocol: as §3
To further confirm the versatility of the HBpep-SR peptide coacervate delivery system, β-Gal, a very high MW enzyme (MW = 430 kDa) was selected to be recruited into the HBpep-SP peptide coacervate. Intracellular delivery of β-Gal is challenging because of the difficulty in forming complexes with common nanocarriers owing to its high MW (Mitragotri, S. et al., Nat. Reviews Drug Disc., 2014, 13, 655).

Compound: CC(=O)OCCSSCCOC(=O)NCCCC[C@H](NC(=O)[C@H](Cc1ccc(O)cc1)NC(=O)[C@@H]1CCCN1C(=O)CNC(=O)[C@H](Cc1c[nH]cn1)NC(=O)CNC(=O)[C@H](Cc1ccc(O)cc1)NC(=O)[C@@H](NC(=O)CNC(=O)[C@H](Cc1c[nH]cn1)NC(=O)CNC(=O)[C@H](Cc1ccc(O)cc1)NC(=O)[C@@H](NC(=O)CNC(=O)[C@H](Cc1c[nH]cn1)NC(=O)CN)C(C)C)C(C)C)C(=O)NCC(=O)N[C@@H](Cc1c[nH]cn1)C(=O)NCC(=O)N1CCC[C@H]1C(=O)N[C@@H](Cc1ccc(O)cc1)C(=O)NCC(=O)N[C@@H](Cc1c[nH]cn1)C(=O)NCC(=O)N[C@@H](CC(C)C)C(=O)N[C@@H](Cc1ccc(O)cc1)C(=O)N[C@@H](Cc1c[nH]c2ccccc12)C(=O)O [HBpep-SA] (H-GHGVYGHGVYGHGPYK(X2)GHGPYGHGLYW-OH)
- cytotoxicity of coacervates with luciferase-encoding mRNA (HepG2 cells [1]): neither HBpep-SA nor HBpep-SP peptide coacervates with luciferase-encoding mRNA caused cytotoxicity
- cytotoxicity of coacervates with luciferase-encoding mRNA (HEK293 cells): neither HBpep-SA nor HBpep-SP peptide coacervates with luciferase-encoding mRNA caused cytotoxicity
- stability of coacervate microdroplets [2]: formed stable microdroplets at near-physiological conditions

Compound: CC(C)C[C@H](NC(=O)CNC(=O)[C@H](Cc1c[nH]cn1)NC(=O)CNC(=O)[C@H](Cc1ccc(O)cc1)NC(=O)[C@@H]1CCCN1C(=O)CNC(=O)[C@H](Cc1c[nH]cn1)NC(=O)CNC(=O)[C@H](CCCCNC(=O)OCCSSCCOC(=O)c1ccccc1)NC(=O)[C@H](Cc1ccc(O)cc1)NC(=O)[C@@H]1CCCN1C(=O)CNC(=O)[C@H](Cc1c[nH]cn1)NC(=O)CNC(=O)[C@H](Cc1ccc(O)cc1)NC(=O)[C@@H](NC(=O)CNC(=O)[C@H](Cc1c[nH]cn1)NC(=O)CNC(=O)[C@H](Cc1ccc(O)cc1)NC(=O)[C@@H](NC(=O)CNC(=O)[C@H](Cc1c[nH]cn1)NC(=O)CN)C(C)C)C(C)C)C(=O)N[C@@H](Cc1ccc(O)cc1)C(=O)N[C@@H](Cc1c[nH]c2ccccc12)C(=O)O [HBpep-SP] (H-GHGVYGHGVYGHGPYK(X1)GHGPYGHGLYW-OH)
- cytotoxicity of coacervates with luciferase-encoding mRNA (HepG2 cells [1]): neither HBpep-SA nor HBpep-SP peptide coacervates with luciferase-encoding mRNA caused cytotoxicity
- cytotoxicity of coacervates with luciferase-encoding mRNA (HEK293 cells): neither HBpep-SA nor HBpep-SP peptide coacervates with luciferase-encoding mRNA caused cytotoxicity
- stability of coacervate microdroplets [2]: formed stable microdroplets at near-physiological conditions

Compound: AVPIAQK [Smac, AVPIAQK, reference compound]
- cytotoxicity of peptide alone (HepG2 cells [1]): negligible cytotoxicity

Compound: GHGVY GHGVY GHGPY K GHGPY GHGLY W (GHGVYGHGVYGHGPYKGHGPYGHGLYW; HBpep derivative) [HBpep-K, HBpep with a single lysine residue inserted at position 16]
- phase state at neutral pH ([3]; neutral pH): reverts to the single phase
- pH at which the peptide phase separates ([3]; turbidity at various pH): 9.0 pH

Compound: KLAKLAK KLAKLAK (KLAKLAKKLAKLAK) [PAD, proapoptotic domain peptide, reference compound]
- cytotoxicity of peptide alone (HepG2 cells [1]): negligible cytotoxicity

Compound: lysozyme: Alexa Fluor 488-labeled lysozyme, cargo protein
- internalization / crossing of the cell membrane by free cargo (HepG2 cells [4]): neither lysozyme (FIGS. 8E, 8F) nor BSA (FIGS. 8G, 8H) were internalized by HepG2 cells

Compound: β-Gal
- X-Gal staining (β-Gal activity in cells) (HepG2 cells [5]): no blue pigment formation
